{"source": "patent EP4620304A1", "about": "“FORMULATION COMPRISING CLOMAZONE AND DIURON” (Adama Agan Ltd., priority 2024, dated 2025)", "assay": "Solubility in clomazone or propylene glycol by visual verification (turbidity)", "assay_type": "physicochemical", "conditions": "organic solvent or mixture, thermodynamic from solid", "description": "All solubilities mentioned in the present document were measured through visual verification. In a known quantity of clomazone or propylene glycol at a desired temperature, the solute (e.g. hexazinone or diuron) was added at a rate of 0.2g/5min.", "note": "Where two headings read alike, the source gives them in different places."}
{"smiles": "CN(C)C(=O)Nc1ccc(Cl)c(Cl)c1", "note": "[Diuron]", "values": [{"measurement": "solubility", "setting": "23 °C, 23 °C, read-out: Solubility of Diuron in Clomazone", "value": 28, "unit": "mg/mL"}, {"measurement": "solubility", "setting": "40 °C, 40 °C, read-out: Solubility of Diuron in Clomazone", "value": 36, "unit": "mg/mL"}, {"measurement": "solubility", "setting": "54 °C, 54 °C, read-out: Solubility of Diuron in Clomazone", "value": 61, "unit": "mg/mL"}]}
{"smiles": "CN(C)c1nc(=O)n(C2CCCCC2)c(=O)n1C", "note": "[Hexazinone]", "values": [{"measurement": "solubility", "setting": "23 °C, Solubility of Hexazinone in Clomazone", "value": 53, "unit": "mg/mL"}, {"measurement": "solubility", "setting": "23 °C, Solubility of Hexazinone in Propileneglycol", "value": 510, "unit": "mg/mL"}, {"measurement": "solubility", "setting": "40 °C, Solubility of Hexazinone in Clomazone", "value": 62, "unit": "mg/mL"}, {"measurement": "solubility", "setting": "40 °C, Solubility of Hexazinone in Propileneglycol", "value": 580, "unit": "mg/mL"}, {"measurement": "solubility", "setting": "54 °C, Solubility of Hexazinone in Clomazone", "value": 73, "unit": "mg/mL"}, {"measurement": "solubility", "setting": "54 °C, Solubility of Hexazinone in Propileneglycol", "value": 630, "unit": "mg/mL"}]}
